Measurements published in ChEMBL document CHEMBL5241054, “Effective anti-aromatase therapy to battle against estrogen-mediated breast cancer: Comparative SAR/QSAR assessment on steroidal aromatase inhibitors” (Eur J Med Chem, 2020).
“And” between values parts separate entries of the source, which are not always exact repeats. Equal values may be shown once.

Tests used:
Aromatase [1] = molecular target: T1, Aromatase (Homo sapiens, UniProt P11511)
T1 sequence (P11511 whole entry): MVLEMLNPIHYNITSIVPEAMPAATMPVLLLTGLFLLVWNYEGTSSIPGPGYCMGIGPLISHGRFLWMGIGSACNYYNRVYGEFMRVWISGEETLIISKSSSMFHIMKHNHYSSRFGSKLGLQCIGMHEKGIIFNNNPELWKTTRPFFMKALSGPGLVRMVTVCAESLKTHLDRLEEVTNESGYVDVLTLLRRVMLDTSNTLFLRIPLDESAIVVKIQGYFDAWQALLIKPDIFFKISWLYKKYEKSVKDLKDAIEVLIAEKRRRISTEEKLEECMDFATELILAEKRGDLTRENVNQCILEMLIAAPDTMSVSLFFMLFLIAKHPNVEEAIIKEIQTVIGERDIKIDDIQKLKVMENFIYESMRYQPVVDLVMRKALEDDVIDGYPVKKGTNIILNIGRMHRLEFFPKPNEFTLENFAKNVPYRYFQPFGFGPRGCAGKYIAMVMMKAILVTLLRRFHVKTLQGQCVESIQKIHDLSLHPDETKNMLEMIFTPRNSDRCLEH

Aromatase [2] = molecular target: T1, Aromatase; remark: listed apart in the source

SMILES | IC50 (Aromatase [1]) | IC50 (Aromatase [2])
C[C@@H]1C[C@@]2(C)C(=CC1=O)CC[C@@H]1[C@@H]2CC[C@]2(C)C(=O)CC[C@@H]12 | 0.46 µM | 0.25 µM and 0.46 µM
C[C@]12CCC(=O)C=C1C=C(CCc1ccc(N)cc1)[C@@H]1[C@@H]2CC[C@]2(C)C(=O)CC[C@@H]12 | 0.0879 µM | 1.25 µM
C[C@]12C=CC(=O)C=C1C[C@@H](Cc1ccccc1)[C@@H]1[C@@H]2CC[C@]2(C)C(=O)CC[C@@H]12 | 0.0192 µM | 0.232 µM
C[C@]12C=CC(=O)C=C1C[C@@H](CCCc1ccc([N+](=O)[O-])cc1)[C@@H]1[C@@H]2CC[C@]2(C)C(=O)CC[C@@H]12 | 0.0757 µM | 0.0129 µM
C[C@]12CCC(=O)C=C1C=C(Cc1ccc(N)cc1)[C@@H]1[C@@H]2CC[C@]2(C)C(=O)CC[C@@H]12 | 0.0879 µM | 0.49 µM
C[C@]12C=CC(=O)C=C1C[C@@H](CCc1ccccc1)[C@@H]1[C@@H]2CC[C@]2(C)C(=O)CC[C@@H]12 | 0.155 µM | 0.0167 µM
C[C@]12C=CC(=O)C=C1C[C@@H](CCc1ccc(N)cc1)[C@@H]1[C@@H]2CC[C@]2(C)C(=O)CC[C@@H]12 |  | 0.0187 µM
C[C@]12CCC(=O)C=C1[C@@H](OCc1ccccc1)C[C@@H]1[C@@H]2CC[C@]2(C)C(=O)CC[C@@H]12 |  | 2.5 µM
C/C=C1\CC[C@@]2(C)[C@@H](CC[C@@H]3[C@@H]2CC[C@]2(C)C4=NN(C)[C@H](c5ccc(OC)cc5)[C@H]4C[C@@H]32)C1 |  | 3.4 µM
C[C@]12CC[C@H](O)C[C@@H]1CC[C@@H]1[C@@H]2CC[C@]2(C)C3=NN(c4ccccc4)[C@H](c4ccccc4)[C@H]3C[C@@H]12 |  | 6.01 µM
CCCCO[C@H]1C[C@@H]2[C@H](CC[C@]3(C)C(=O)CC[C@@H]23)[C@@]2(C)CCC(=O)C=C12 |  | 0.78 µM
COc1ccc([C@@H]2[C@H]3C[C@H]4[C@@H]5CC[C@H]6C[C@@H](OC(=O)C(F)(F)F)CC[C@]6(C)[C@H]5CC[C@]4(C)C3=NN2C(C)=O)cc1 |  | 6.46 µM
C[C@@H]1C[C@@]2(C=O)C(=CC1=O)CC[C@@H]1[C@@H]2CC[C@]2(C)C(=O)CC[C@@H]12 |  | 12 µM
C[C@]12CCC(=O)C=C1CC[C@@H]1[C@@H]2CC[C@]2(C)C(=O)C(Br)C[C@@H]12 (stereo not given in full) |  | 2.65 µM
C[C@]12C=CC(=O)C=C1C[C@H](c1ccc(N)cc1)[C@@H]1[C@@H]2CC[C@]2(C)C(=O)CC[C@@H]12 |  | 0.00991 µM
C[C@]12C[C@@H](Br)C(=O)C=C1CC[C@@H]1[C@@H]2CC[C@]2(C)C(=O)CC[C@@H]12 |  | 2.2 µM
CO[C@H]1C[C@@H]2[C@H](CC[C@]3(C)C(=O)CC[C@@H]23)[C@@]2(C)CCC(=O)C=C12 |  | 0.54 µM
C[C@]12CCC(=O)C[C@@H]1CC[C@@H]1[C@@H]2CC[C@]2(C)C3=NN[C@H](c4ccccc4)[C@H]3C[C@@H]12 |  | 5.24 µM
CCOC1=C[C@@H]2[C@H](CC[C@]3(C)C(=O)CC[C@@H]23)[C@@]2(C)C=CC(=O)C=C12 |  | 0.951 µM
COc1ccc([C@H]2NN=C3[C@@H]2C[C@H]2[C@@H]4CCC5=CC(=O)C=C[C@]5(C)[C@H]4CC[C@]32C)cc1 |  | 2.91 µM
COCSC1=C2CC[C@@H]3[C@H](CC[C@]4(C)C(=O)CC[C@@H]34)[C@@]2(C)CCC1=O |  | 10 µM
CO[C@@H]1C[C@@H]2[C@H](CC[C@]3(C)C(=O)CC[C@@H]23)[C@@]2(C)CCC(=O)C=C12 |  | 0.17 µM
CCC(=O)N1N=C2[C@H](C[C@H]3[C@@H]4CC[C@H]5C[C@@H](OC(=O)C(F)(F)F)CC[C@]5(C)[C@H]4CC[C@]23C)[C@H]1c1ccccc1 |  | 6.71 µM
CN1N=C2[C@H](C[C@H]3[C@@H]4CC[C@H]5CC(=O)CC[C@]5(C)[C@H]4CC[C@]23C)[C@H]1c1ccccc1 |  | 4.78 µM
